Source: PubChem BioAssay AID284 (DTP/NCI, 2004)
Several values for one entry are separate records, joined by “and”; a condition that tells them apart may be missing. Equal values may be shown once. Inconclusive results and toxic doses are left out.

Test system: BDF1 mice, L1210/MTX-resistant leukemia ip, survival T/C
Test: NCI In Vivo Anticancer Drug Screen. Data for tumor model L1210 Leukemia resistant to Methotrexate; NSC 740 (intraperitoneal) in B6D2F1 (BDF1) mice
Conditions: endpoint: mean survival time, higher = longer survival
Method: The antitumor activity of compounds was measured in mice bearing transplantable tumors. Survival or tumor size were measured and the results are expressed as the measurement made in the treated group (T) divided by the measurement made in the vehicle treated control group (C). The tumor model used in this assay is L1210 Leukemia resistant to Methotrexate; NSC 740 (intraperitoneal) in B6D2F1 (BDF1) mice

[1] = dose: 1.6 mg/kg/injection, schedule: Q01DX Z (ip), vehicle: methylcellulose (MC)
[2] = dose: 20.0 mg/kg/injection, schedule: Q01DX Z (ip), vehicle: carboxymethylcellulose (CMC)
[3] = dose: 25.0 mg/kg/injection, schedule: Q01DX010 (ip), vehicle: saline
[4] = dose: 12.5 mg/kg/injection, schedule: Q01DX Z (ip), vehicle: saline
[5] = dose: 12.5 mg/kg/injection, schedule: Q01DX010 (ip), vehicle: saline
[6] = dose: 50.0 mg/kg/injection, schedule: Q01DX Z (ip), vehicle: carboxymethylcellulose (CMC)
[7] = dose: 100.0 mg/kg/injection, schedule: Q01DX Z (ip), vehicle: carboxymethylcellulose (CMC)
[8] = dose: 8.0 mg/kg/injection, schedule: Q01DX010 (ip), vehicle: saline
[9] = dose: 500.0 mg/kg/injection, schedule: Q01DX Z (ip), vehicle: saline

With `CCN(CC)CCNc1ccc(C)c2sc3ccccc3c(=O)c12` the T/C [1] was 89 % of control and 93 % of control, the T/C (dose: 3.2 mg/kg/injection, schedule: Q01DX Z (ip), vehicle: methylcellulose (MC)) was 93 % of control and the T/C (dose: 6.3 mg/kg/injection, schedule: Q01DX Z (ip), vehicle: methylcellulose (MC)) was 93 % of control. For the same molecule, the T/C [2] was 112 % of control, the T/C [3] was 159 % of control and the T/C (dose: 40.0 mg/kg/injection, schedule: Q01DX Z (ip), vehicle: carboxymethylcellulose (CMC)) was 106 % of control. The T/C (dose: 50.0 mg/kg/injection, schedule: Q01DX010 (ip), vehicle: saline) was 124 % of control, the T/C (dose: 80.0 mg/kg/injection, schedule: Q01DX Z (ip), vehicle: carboxymethylcellulose (CMC)) was 113 % of control and the T/C (dose: 100.0 mg/kg/injection, schedule: Q01DX010 (ip), vehicle: saline) was 213 % of control. The T/C (dose: 200.0 mg/kg/injection, schedule: Q01DX010 (ip), vehicle: saline) was 86 % of control.

`O=P1(N(CCCl)CCCl)NCCCO1` (stereo not drawn) was tested, and the T/C (dose: 11.3 mg/kg/injection, schedule: Q01DX010 (ip), vehicle: saline) was 100 % of control, the T/C [4] was 98 % of control and 103 % of control and the T/C (dose: 22.5 mg/kg/injection, schedule: Q01DX Z (ip), vehicle: saline) was 174 % of control. For the same molecule, the T/C (dose: 45.0 mg/kg/injection, schedule: Q01DX010 (ip), vehicle: saline) was 152 % of control, the T/C (dose: 90.0 mg/kg/injection, schedule: Q01DX010 (ip), vehicle: saline) was 87 % of control and the T/C (dose: 100.0 mg/kg/injection, schedule: Q01DX Z (ip), vehicle: saline) was 88 % of control and 109 % of control. For the same molecule, the T/C (dose: 200.0 mg/kg/injection, schedule: Q01DX Z (ip), vehicle: saline) was 88 % of control and 103 % of control.

`[I][Hg][CH2]C1COC([CH2][Hg][I])CO1` (stereo not drawn) was tested, and the T/C (dose: 0.8 mg/kg/injection, schedule: Q01DX Z (ip), vehicle: methylcellulose (MC)) was 94 % of control, the T/C [1] was 94 % of control and the T/C (dose: 6.25 mg/kg/injection, schedule: Q01DX010 (ip), vehicle: saline) was 101 % of control. The T/C [5] was 103 % of control.

`O=C(Nc1ccc(C2=NCCCN2)cc1)c1ccc(NC(=O)c2ccc(C3=NCCCN3)cc2)cc1` was tested, and the T/C (dose: 2.0 mg/kg/injection, schedule: Q01DX010 (ip), vehicle: other) was 168 % of control, the T/C (dose: 4.0 mg/kg/injection, schedule: Q01DX010 (ip), vehicle: other) was 218 % of control and 257 % of control and the T/C (dose: 8.0 mg/kg/injection, schedule: Q01DX010 (ip), vehicle: other) was 181 % of control and 221 % of control.

For `Cn1c(O)c(N=NC(N)=S)c2ccccc21`, the T/C [6] was 96 % of control and the T/C [7] was 86 % of control.

With `OCC1OC(n2cnc3c(Cl)ncnc32)C(O)C1O` (stereo not drawn) the T/C (dose: 62.5 mg/kg/injection, schedule: Q01DX010 (ip), vehicle: saline) was 87 % of control and 90 % of control, the T/C (dose: 125.0 mg/kg/injection, schedule: Q01DX010 (ip), vehicle: saline) was 95 % of control and 98 % of control and the T/C (dose: 250.0 mg/kg/injection, schedule: Q01DX010 (ip), vehicle: saline) was 95 % of control and 100 % of control. The T/C (dose: 500.0 mg/kg/injection, schedule: Q01DX010 (ip), vehicle: saline) was 98 % of control.

`Nc1nc(SCc2ccccc2)c2[nH]cnc2n1` was tested, and the T/C (dose: 6.25 mg/kg/injection, schedule: Q01DX Z (ip), vehicle: carboxymethylcellulose (CMC)) was 121 % of control, the T/C [8] was 105 % of control and the T/C (dose: 12.5 mg/kg/injection, schedule: Q01DX Z (ip), vehicle: carboxymethylcellulose (CMC)) was 114 % of control. For the same molecule, the T/C (dose: 16.0 mg/kg/injection, schedule: Q01DX010 (ip), vehicle: saline) was 120 % of control, the T/C (dose: 25.0 mg/kg/injection, schedule: Q01DX Z (ip), vehicle: carboxymethylcellulose (CMC)) was 107 % of control and the T/C [6] was 105 % of control. For the same molecule, the T/C (dose: 62.5 mg/kg/injection, schedule: Q01DX Z (ip), vehicle: carboxymethylcellulose (CMC)) was 95 % of control and the T/C (dose: 64.0 mg/kg/injection, schedule: Q01DX010 (ip), vehicle: saline) was 96 % of control.

With `CNC=O` the T/C (dose: 125.0 mg/kg/injection, schedule: Q01DX Z (ip), vehicle: saline) was 117 % of control, the T/C (dose: 150.0 mg/kg/injection, schedule: Q01DX Z (ip), vehicle: saline) was 104 % of control and the T/C (dose: 250.0 mg/kg/injection, schedule: Q01DX Z (ip), vehicle: saline) was 111 % of control. For the same molecule, the T/C (dose: 300.0 mg/kg/injection, schedule: Q01DX Z (ip), vehicle: saline) was 156 % of control and the T/C [9] was 112 % of control.

`C[C@H](N)C(=O)N[C@@H]1[C@H]2C(=C(O)C[C@@H](O)[C@@H]2O)C(=O)O[C@@H]1C` was tested, and the T/C [9] was 120 % of control, the T/C (dose: 600.0 mg/kg/injection, schedule: Q01DX Z (ip), vehicle: saline) was 174 % of control and 187 % of control and the T/C (dose: 1000.0 mg/kg/injection, schedule: Q01DX Z (ip), vehicle: saline) was 102 % of control and 110 % of control. The T/C (dose: 1200.0 mg/kg/injection, schedule: Q01DX Z (ip), vehicle: saline) was 121 % of control and 122 % of control.

`C[n+]1c2ccccc2nc2c(N)cc(N)cc21` was tested, and the T/C (dose: 3.2 mg/kg/injection, schedule: Q01DX Z (ip), vehicle: other) was 101 % of control and 110 % of control, the T/C (dose: 6.3 mg/kg/injection, schedule: Q01DX Z (ip), vehicle: other) was 116 % of control and 107 % of control and the T/C [8] was 122 % of control. For the same molecule, the T/C (dose: 12.0 mg/kg/injection, schedule: Q01DX010 (ip), vehicle: saline) was 114 % of control, the T/C (dose: 12.5 mg/kg/injection, schedule: Q01DX Z (ip), vehicle: other) was 103 % of control and 105 % of control and the T/C (dose: 18.0 mg/kg/injection, schedule: Q01DX010 (ip), vehicle: saline) was 96 % of control.

For `CN(C)c1ccc(/C=C\c2ccnc3ccccc23)cc1`, the T/C (dose: 1.5 mg/kg/injection, schedule: Q01DX010 (ip), vehicle: saline) was 97 % of control, the T/C (dose: 3.0 mg/kg/injection, schedule: Q01DX010 (ip), vehicle: saline) was 103 % of control and the T/C (dose: 6.0 mg/kg/injection, schedule: Q01DX010 (ip), vehicle: saline) was 99 % of control.

For `CN(C)C(=S)N=Nc1c(O)[nH]c2ccccc12`, the T/C (dose: 2.5 mg/kg/injection, schedule: Q01DX Z (ip), vehicle: carboxymethylcellulose (CMC)) was 110 % of control, the T/C (dose: 5.0 mg/kg/injection, schedule: Q01DX Z (ip), vehicle: carboxymethylcellulose (CMC)) was 106 % of control and the T/C (dose: 10.0 mg/kg/injection, schedule: Q01DX Z (ip), vehicle: carboxymethylcellulose (CMC)) was 115 % of control. For the same molecule, the T/C [2] was 95 % of control, the T/C [6] was 124 % of control and the T/C [7] was 86 % of control.

With `CSc1ncnc2c1ncn2C1OC(CO)C(O)C1O` (stereo not drawn) the T/C (dose: 0.5 mg/kg/injection, schedule: Q01DX Z (ip), vehicle: saline) was 102 % of control, the T/C (dose: 1.0 mg/kg/injection, schedule: Q01DX Z (ip), vehicle: saline) was 99 % of control and the T/C (dose: 2.0 mg/kg/injection, schedule: Q01DX Z (ip), vehicle: saline) was 105 % of control. For the same molecule, the T/C (dose: 4.0 mg/kg/injection, schedule: Q01DX Z (ip), vehicle: saline) was 112 % of control, the T/C (dose: 6.25 mg/kg/injection, schedule: Q01DX Z (ip), vehicle: saline) was 97 % of control and the T/C (dose: 10.0 mg/kg/injection, schedule: Q01DX010 (ip), vehicle: saline) was 107 % of control. For the same molecule, the T/C [5] was 109 % of control, the T/C [4] was 93 % of control and the T/C (dose: 15.0 mg/kg/injection, schedule: Q01DX010 (ip), vehicle: saline) was 106 % of control. The T/C (dose: 20.0 mg/kg/injection, schedule: Q01DX010 (ip), vehicle: saline) was 102 % of control.

`Oc1cc(CN(CCCl)CCCl)c(O)cc1CN(CCCl)CCCl` was tested, and the T/C (dose: 0.25 mg/kg/injection, schedule: Q01DX Z (ip), vehicle: carboxymethylcellulose (CMC)) was 96 % of control, the T/C (dose: 0.37 mg/kg/injection, schedule: Q01DX Z (ip), vehicle: carboxymethylcellulose (CMC)) was 110 % of control and the T/C (dose: 0.5 mg/kg/injection, schedule: Q01DX Z (ip), vehicle: carboxymethylcellulose (CMC)) was 88 % of control. For the same molecule, the T/C (dose: 0.75 mg/kg/injection, schedule: Q01DX Z (ip), vehicle: carboxymethylcellulose (CMC)) was 97 % of control, the T/C (dose: 1.0 mg/kg/injection, schedule: Q01DX Z (ip), vehicle: carboxymethylcellulose (CMC)) was 86 % of control and the T/C (dose: 2.0 mg/kg/injection, schedule: Q01DX Z (ip), vehicle: carboxymethylcellulose (CMC)) was 88 % of control.

With `CC/C(=C(/CC)c1ccc(O)cc1)c1ccc(O)cc1` the T/C [5] was 94 % of control, the T/C (dose: 12.5 mg/kg/injection, schedule: Q01DX010 (sc), vehicle: steriod suspending solution) was 92 % of control and the T/C [3] was 94 % of control. For the same molecule, the T/C (dose: 50.0 mg/kg/injection, schedule: Q01DX010 (sc), vehicle: steriod suspending solution) was 89 % of control and the T/C (dose: 100.0 mg/kg/injection, schedule: Q01DX010 (sc), vehicle: steriod suspending solution) was 86 % of control and 87 % of control.
